# Positions of bridges follow the written chain, without caps; N, C: chain ends. Non-standard residues stand in square brackets, D forms with d. Residues, ends and D or L forms follow the SMILES beside them. *: point of attachment. Myristoyl = CCCCCCCCCCCCCC(=O)*; dDab = NCC[C@@H](N)C(=O)O; Dab = NCC[C@H](N)C(=O)O
# Legend:
# Format in all cases: cell-based, Staphylococcus aureus
# S. aureus = assay: Direct plating of S. aureus on cilagicin-containing agar plates (resistant colonies); details: plating S. aureus directly on cilagicin-containing agar plates
# S. aureus USA300 [1] = assay: Time-dependent killing assay; details: S. aureus USA300, 10x the MIC
# Experimental: An overnight culture of S. aureus USA300 was diluted 1:10,000 in 50 mL fresh LB and incubated at 37° C. with aeration at 220 rpm for 2 hours. Bacteria (3 mL) were challenged with 10× the MIC of each antibiotic (10 μg/mL cilagicin, 10 μg/mL vancomycin). After 1.25, 4, 8, 16 and 24 hours 200 μL aliquots of cells were collected, centrifuged at 10,000×g for 1 minute and then resuspended in 200 μL of sterile PBS (pH 7.4). 50 μL aliquots of 10-fold serial dilutions were plated on LB agar plates. After overnight growth at 37° C., colonies were counted. Experiments were performed three independent times (n=3).
# S. aureus USA300 [2] = assay: Cell lysis assay (SYTOX green); details: S. aureus exposed to 8-fold MIC
# Experimental: Cell lytic activity of cilagicin was evaluated using SYTOX green nucleic acid stain (Thermo Fisher, USA). Gramicidin and DMSO were used as positive and negative controls, respectively. S. aureus USA300 was grown overnight at 37° C. with shaking (200 rpm) and then diluted in fresh LB broth to an OD600nm of 0.35. 900 μL of this S. aureus USA300 suspension was mixed with 100 μL of SYTOX (17 μM in DMSO). The mixture was incubated at room temperature for 5 minutes, and then transferred into a 384-well flat bottom black microtiter plate (30 μL/well). The initial fluorescence intensity of each well was recorded using an infinite 200 PRO (Excitation/Emission=488/523 nm) at 9 second intervals for 5 minutes. […] The fluorescence intensity of each well was then continually monitored at 9 second intervals for 25 minutes and plotted by Prism 9.0. All assays were performed in biological triplicates (n=3).
# [3] = tested on: cell wall biosynthesis (UDP-MurNAc-pentapeptide) in S. aureus USA300; assay: UDP-MurNAc-pentapeptide accumulation assay; details: S. aureus cultures exposed at 1xMIC
# Experimental: The effect of cilagicin on cell wall biosynthesis was investigated by tracking the accumulation UDP-MurNAc-pentapeptide in antibiotic treated cultures. Overnight S. aureus USA300 cultures were diluted in fresh LB broth and grown at 37° C. to an OD600 nm of 0.5. They were then treated with 130 μg/mL of chloramphenicol. After incubating at 37° C. for 15 minutes, 1 μg/mL of cilagicin was added. Vancomycin (10 μg/mL) and DMSO were used as positive and vehicle control, respectively. After an incubation of 60 mins, cells (0.5 mL) were harvested, and the cell pellet was resuspended in 30 μL ddH2O. The cell suspension was incubated in boiling water for 15 minutes and spun down at 15,000×g for 5 minutes. The supernatant was then analyzed by UPLC-DAD-MS (Acquity UPLC BEH C18, 2.1×50 mm, 1.7 μM, 130 Å, […] isocratic elution at 97% water:acetonitrile (ACN) for 1 minute, then from 97% to 5% water:ACN over 3 minutes, with constant 0.1% formic acid; negative ionization modes).
# S. aureus USA300 [4] = tested on: S. aureus USA300
# Experimental: The effect of lipid II biosynthesis intermediates on cilagicin's antibacterial activity was evaluated using S. aureus USA300 and the general MIC assay methods described above with the following changes. Potential antagonizing compounds were mixed with cilagicin at a constant molar ratio of 5. Cilagicin mixed with solvent alone was used as a control. Premixed solutions were dried in vacuo for 2 hours to completely remove all organic solvent. They were then resuspended in LB broth and mixed with S. aureus. All assays were run in duplicate (n=2) and repeated two independent times (n=2).
# S. aureus USA300 [5] = assay: Resistance studies (daily serial passage at sub-MIC)
# Experimental: A single colony of S. aureus USA300 was inoculated in 5 mL LB broth and grown overnight at 37° C. with continuous shaking (200 rpm). The overnight culture was then diluted 1:5,000 into fresh LB. 50 μL aliquots of dilute cells were transferred into individual wells of 96-well plates containing 50 μL of serially diluted cilagicin, amphomycin (AG Scientific, USA) or bacitracin (Sigma, USA). Plates were statically incubated at 37° C. After 24 hours, the MIC was recorded. […] The MIC was determined as described above. This process was repeated daily for 25 days. For bacitracin, the LB medium was supplemented with 50 μg/mL ZnCl2. For amphomycin, the medium was supplemented with 100 μg/mL CaCl2-2H2O. Experiments were performed three independent times (n=3).
# S. aureus USA300 [6] = assay: Scanning electron microscopy of treated cells; details: S. aureus USA300, 10x the MIC, 0-4 hours
# Experimental: S. aureus USA300 cultures at different time points from the time-kill curve analysis (FIG. 2A, 0, 1, 2, and 4 hours) were used in this study. 30 μl of each cell suspension was spotted onto 12 mm glass or Aclar film round coverslips. A drop of fixative (100 μl of 2% glutaraldehyde, 4% formaldehyde in 0.1 M sodium cacodylate buffer pH 7.2) was added on top of the coverslip which was coated with 0.1% polylysine. After 30 minutes, additional fixative was added to the dish containing the coverslips and samples were left at 4° C. overnight. Samples were gently washed three times with 0.1 M sodium cacodylate buffer (pH 7.2) for 5-10 minutes each time and postfixed with osmium tetroxide 1% in 0.1M sodium cacodylate buffer pH 7.2 for 1 hour at room temperature. After rinsing three times with buffer, samples were dehydrated in a graded series of ethanol concentrations (30%, 50%, 70%, 90%) for 10 minutes each and three times in 100% ethanol (with molecular sieves) for 15 minutes each and then further dried in a critical point drier (Tousimis Autosamdri 931, USA). Samples were coated with 10 nm of iridium using a Leica ACE600 sputter coater.
structure (smiles),measurement,setting,value
CCCCCCCCCCCCCC(=O)N[C@H](CO)C(=O)N[C@@H]1C(=O)N[C@H](CCN)C(=O)N[C@@H](CC(=O)O)C(=O)NCC(=O)N[C@H](CC(N)=O)C(=O)N[C@H](CC(=O)O)C(=O)NCC(=O)N[C@@H](Cc2ccc(O)cc2)C(=O)N[C@@H](C(C)C)C(=O)N[C@@H](CCN)C(=O)N[C@@H](Cc2ccccc2)C(=O)O[C@@H]1C [Cilagicin] (Myristoyl-[dS]T[dDab]DG[dN][dD]GYV[Dab]F; ester 2-C),colonies that showed more than a 2-fold increase in MIC (2 μg/mL),S. aureus,never observed
same,"time-dependent killing curve analysis, kind of action",S. aureus USA300 [1],bactericidal
same,reduction of the number of viable bacteria,S. aureus USA300 [1]; after 4 hours,more than four orders of magnitude
same,cell lytic activity (SYTOX fluorescence),S. aureus USA300 [2],No response was detected
same,accumulation of UDP-MurNAc-pentapeptide (LCMS),[3],obvious accumulation
same,molar ratio at which C55-P completely inhibited the bioactivity,"S. aureus USA300 [4]; S. aureus USA300, C55-P",~ 1.25
same,molar ratio at which C55-PP gave complete inhibition,"S. aureus USA300 [4]; S. aureus USA300, C55-PP",~ 2.5
same,MIC in the presence of C55-P,S. aureus USA300 [4]; USA300,≥ 64 µg/mL
same,maximum change in MIC (increase),"S. aureus USA300 [5]; S. aureus USA300, after 25 days of constant exposure",1 fold
same,cross resistance of bacitracin resistant and amphomycin resistant mutants,S. aureus USA300 [5]; S. aureus mutants raised by serial passage,neither the highly bacitracin resistant mutants nor the highly amphomycin resistant mutants that were generated showed cross resistance
same,electron microscopy images of treated cells,S. aureus USA300 [6],cell collapse over time

# From patent US20260193295A1, “CILAGICIN COMPOUNDS AND METHODS OF USE THEREOF” (priority 2022, published 2026)
